Measured values from ChEMBL document CHEMBL5321241, “Identification of new hit to lead magmas inhibitors as potential therapeutics for glioblastoma” (Bioorg Med Chem Lett, 2023).

Key:
[1] = Lipophilicity, logP of compound; format: physicochemical; conditions: octanol/water
[2] = Anticancer activity against human D-54MG cells assessed as cell growth inhibition inhibition incubated for 3 days; format: functional, cell-based; conditions: D54MG, 72 h
U-251 = experiment: Anticancer activity against human U-251 cells assessed as cell growth inhibition inhibition incubated for 3 days; format: functional, cell-based; conditions: U-251, 72 h
LN-229 = experiment: Anticancer activity against human LN-229 cells assessed as cell growth inhibition inhibition incubated for 3 days; format: functional, cell-based; conditions: LN-229, 72 h
[3] = Anticancer activity against patient-derived DB70 cells assessed as cell growth inhibition inhibition incubated for 3 days; format: functional, cell-based; conditions: Homo sapiens, DB70, 72 h
[4] = Anticancer activity against patient-derived DB93 cells assessed as cell growth inhibition incubated for 3 days; format: functional, cell-based; conditions: Homo sapiens, DB93, 72 h

SMILES	logP ([1]; read-out: logP)	IC50 (U-251) [µM]	logP [1]	IC50 [2] [µM]	IC50 (LN-229) [µM]	IC50 [3] [µM]	IC50 [4] [µM]
CCC1=C(C)/C(=C/c2ccc(-c3noc(-c4ccc(Br)cc4)n3)cc2)CCC1(C)C	8.39	7		> 100			
Cn1nnc2c(C(N)=O)ncn2c1=O [TEMOZOLOMIDE]		> 500	-1.15	> 500	> 1000	25.4	> 500
CCC1=C(C)/C(=C/c2ccc(C#N)cc2)CCC1(C)C	5.25	83.8		72.2			
CCC1=C(C)/C(=C/c2ccc(-c3noc(-c4ccc(Cl)cc4)n3)cc2)CCC1(C)C	8.12	10		> 100			
CCC1=C(C)/C(=C/c2ccc(-c3noc(-c4ccccc4OC(F)(F)F)n3)cc2)CCC1(C)C		58.4	9.09	65.6			
CCC1=C(C)/C(=C/c2ccc(-c3noc(-c4ccncc4)n3)cc2)CCC1(C)C	6.22	> 100			> 100		
CCC1=C(C)/C(=C/c2ccc(-c3noc(-c4cccnc4)n3)cc2)CCC1(C)C	6.22	37.8			35.6		
CCC1=C(C)/C(=C/c2ccc(C3=NOB(c4ccccc4)N3)cc2)CCC1(C)C	6.5	26.8		47.4	60	13.3	8.31

Further lines, with some results ahead:

logP ([1]; read-out: logP)	IC50 (U-251) [µM]	logP [1]	SMILES	IC50 [2] [µM]	IC50 (LN-229) [µM]	IC50 [3] [µM]	IC50 [4] [µM]
7.14			CCC1=C(C)/C(=C/c2ccc(C(=O)Nc3ccc(Cl)cc3Cl)cc2)CCC1(C)C				
5.63	> 100		CCC1=C(C)/C(=C/c2ccc(C(=O)Nc3ccc(O)cc3)cc2)CCC1(C)C	> 100			
7.55	20.7		CCC1=C(C)/C(=C/c2ccc(C(=O)Nc3ccc(OC(F)(F)F)cc3)cc2)CCC1(C)C		47.5		
8.05	75		CCC1=C(C)/C(=C/c2ccc(C(=O)Nc3nc4ccc(Br)cc4s3)cc2)CCC1(C)C	100			
5.74	> 100		CCC1=C(C)/C(=C/c2ccc(C(=O)Nc3nccs3)cc2)CCC1(C)C		> 100		
6.37	> 100		CCC1=C(C)/C(=C/c2ccc(C(=O)Nc3ccc4[nH]c(C(F)(F)F)nc4c3)cc2)CCC1(C)C		> 100		
3.98	5.06		CCC1=C(C)/C(=C/c2ccc(C(=O)NC(=N)N)cc2)CCC1(C)C	5.6	6.54	1.77	2.09
7.22	19.3		CCC1=C(C)/C(=C/c2ccc(C(=O)Nc3nc4ccccc4s3)cc2)CCC1(C)C	6.64	22.8	6.67	3.54
6.94	6.04		CCC1=C(C)/C(=C/c2ccc(C(=O)Nc3ccc(C(F)(F)F)cc3)cc2)CCC1(C)C	3.81	5.93	> 50	> 50
4.53	56.8		CCC1=C(C)/C(=C/c2ccc(/C(N)=N/O)cc2)CCC1(C)C	66.6			
5.78	4.47		CCC1=C(C)/C(=C/c2ccc(C(=O)Nc3nc4ccccc4[nH]3)cc2)CCC1(C)C		> 75		
